# Experimental data taken from publication PMC4965013, “Open Source Drug Discovery with the Malaria Box Compound Collection for Neglected Diseases and Beyond” (PLoS Pathogens, 2016).
# Read-outs that look alike come from different tables or passages of the source.
# Columns and labels:
# [1] = test system: P. falciparum; assay: EC50 listed in S2 Table Metabolomics (used to set the concentration tested); type: cell-based; conditions: Plasmodium falciparum; EC50 used for Factor_XEC50 in metabolomics; read-out: EC50_nM
# [2] = test system: P. falciparum 3D7; assay: [3H]-hypoxanthine growth inhibition, modified HCO3- or O2; type: cell-based; conditions: for IC50: Plasmodium falciparum
# [3] = test system: P. falciparum 3D7 trophozoites; assay: Metabolomic fingerprint profiling LC-MS; type: cell-based, Plasmodium falciparum; parameters: UDP-D-glucose / ADP-D-glucose: unit not given here
# [4] = metabolite level change after treatment
smiles,measurement,setting,value
O=C(NCC(c1ccsc1)N1CCCCCC1)c1ccc(C(F)(F)F)cc1 (centres unmarked) [MMV396672],EC50,[1],433 nM
same,fold change (IC50reduced/IC50normal),[2],2.6
same,IC50,"[2]; 3D7, read-out: P. falciparum 3D7 IC50 HCO3- (2g/L), standard media",425 nM
same,IC50,"[2]; 3D7, HCO3- reduced media, read-out: P. falciparum 3D7 IC50 HCO3- reduced",1120 nM
same,Acetyllysine,"[3]; S2 Table Metabolomics, metabolite Acetyllysine",-0.3412
same,N-acetyl-L-ornithine,"[3]; S2 Table Metabolomics, metabolite N-acetyl-L-ornithine",0.04406
same,N-carbamoyl-L-aspartate,"[3]; S2 Table Metabolomics, metabolite N-carbamoyl-L-aspartate",1.501
same,NADPH,"[3]; S2 Table Metabolomics, metabolite NADPH",1.59
same,dAMP,"[3]; S2 Table Metabolomics, metabolite dAMP",-0.1547
same,dCMP,"[3]; S2 Table Metabolomics, metabolite dCMP",-0.6707
same,dTDP,"[3]; S2 Table Metabolomics, metabolite dTDP",-0.2295
same,dTMP,"[3]; S2 Table Metabolomics, metabolite dTMP",-0.1132
same,dTTP,"[3]; S2 Table Metabolomics, metabolite dTTP",-0.02683
same,dihydroorotate,"[3]; S2 Table Metabolomics, metabolite dihydroorotate",1.3113
same,orotate,"[3]; S2 Table Metabolomics, metabolite orotate",-0.2374
same,DLH,"[3]; S2 Table Metabolomics, peptide DLH",0.2454
same,DLS/SDL/SID,"[3]; S2 Table Metabolomics, peptide DLS/SDL/SID",0.4945
same,PD,"[3]; S2 Table Metabolomics, peptide PD",-0.2062
same,PEE,"[3]; S2 Table Metabolomics, peptide PEE",0.3834
same,PVNF,"[3]; S2 Table Metabolomics, peptide PVNF",0.4792
same,3-phosphoglycerate,"[3]; metabolite 3-phosphoglycerate, S2 Table Metabolomics",0.01662
same,ADP-D-glucose,"[3]; metabolite ADP-D-glucose, S2 Table Metabolomics",0.1495
same,ATP,"[3]; metabolite ATP, S2 Table Metabolomics",0.06805
same,CDP,"[3]; metabolite CDP, S2 Table Metabolomics, change in metabolite level after compound treatment",-0.3083
same,D-sedoheptulose-1/7-phosphate,"[3]; metabolite D-sedoheptulose-1/7-phosphate, S2 Table Metabolomics, change in metabolite level after compound treatment",-0.1874
same,FAD,"[3]; metabolite FAD, S2 Table Metabolomics",0.01705
same,GMP,"[3]; metabolite GMP, S2 Table Metabolomics, change in metabolite level after compound treatment",-0.121
same,NAD+,"[3]; metabolite NAD+, S2 Table Metabolomics",-0.07697
same,NADP+,"[3]; metabolite NADP+, S2 Table Metabolomics",0.1144
same,Octoluse Bisphosphate,"[3]; metabolite Octoluse Bisphosphate, S2 Table Metabolomics, change in metabolite level after compound treatment",-0.0874
same,Pyroglutamic acid,"[3]; metabolite Pyroglutamic acid, S2 Table Metabolomics",-0.2718
same,UDP-D-glucose,"[3]; metabolite UDP-D-glucose, S2 Table Metabolomics",0.05361
same,UDP-D-glucuronate,"[3]; metabolite UDP-D-glucuronate, S2 Table Metabolomics",0.1556
same,UDP-N-acetyl-glucosamine,"[3]; metabolite UDP-N-acetyl-glucosamine, S2 Table Metabolomics",-0.04862
same,UDP,"[3]; metabolite UDP, S2 Table Metabolomics, change in metabolite level after compound treatment",-0.327
same,UMP,"[3]; metabolite UMP, S2 Table Metabolomics, change in metabolite level after compound treatment",-1.306
same,UTP,"[3]; metabolite UTP, S2 Table Metabolomics, change in metabolite level after compound treatment",-0.1422
same,a-ketoglutarate,"[3]; metabolite a-ketoglutarate, S2 Table Metabolomics",-0.6396
same,citrate/isocitrate,"[3]; metabolite citrate/isocitrate, S2 Table Metabolomics, change in metabolite level after compound treatment",-0.6773
same,cytidine,"[3]; metabolite cytidine, S2 Table Metabolomics",0.6424
same,dATP,"[3]; metabolite dATP, S2 Table Metabolomics",0.05116
same,dGMP/AMP,"[3]; metabolite dGMP/AMP, S2 Table Metabolomics, change in metabolite level after compound treatment",-0.08656
same,fumarate,"[3]; metabolite fumarate, S2 Table Metabolomics, change in metabolite level after compound treatment",-0.2118
same,glucose-1/6-phosphate,"[3]; metabolite glucose-1/6-phosphate, S2 Table Metabolomics, change in metabolite level after compound treatment",0.01846
same,glycerate,"[3]; metabolite glycerate, S2 Table Metabolomics, change in metabolite level after compound treatment",-1.2197
same,guanine,"[3]; metabolite guanine, S2 Table Metabolomics, change in metabolite level after compound treatment",-0.7457
same,guanosine,"[3]; metabolite guanosine, S2 Table Metabolomics, change in metabolite level after compound treatment",-1.987
same,hypoxanthine,"[3]; metabolite hypoxanthine, S2 Table Metabolomics",0.2737
same,indole,"[3]; metabolite indole, S2 Table Metabolomics",0.1693
same,inosine,"[3]; metabolite inosine, S2 Table Metabolomics, change in metabolite level after compound treatment",-0.393
same,2_3-Diphosphoglyceric acid,[3]; [4],-0.1323
same,4-phosphopantothenate,[3]; [4],-0.391
same,6-phospho-D-gluconate,[3]; [4],-0.02288
same,FMN,[3]; [4],0.06346
same,IMP,[3]; [4],-0.1805
same,Pyrophosphate,[3]; [4],-0.05249
same,Sedoheptoluse bisphosphate,[3]; [4],-0.2083
same,cyclic-AMP,[3]; [4],-0.07949
same,glutathione disulfide,[3]; [4],-0.4263
same,lactate,[3]; [4],-0.6757
same,myo-inositol,[3]; [4],-1.04
same,nicotinate,"[3]; metabolite nicotinate, S2 Table Metabolomics",-1.005
same,ornithine,"[3]; metabolite ornithine, S2 Table Metabolomics",0.1454
same,phosphoenolpyruvate,"[3]; metabolite phosphoenolpyruvate, S2 Table Metabolomics",-0.3004
same,pyruvate,"[3]; metabolite pyruvate, S2 Table Metabolomics, change in metabolite level after compound treatment",-1.162
same,ribose-phosphate,"[3]; metabolite ribose-phosphate, S2 Table Metabolomics",0.03374
same,sarcosine/alanine,"[3]; metabolite sarcosine/alanine, S2 Table Metabolomics, change in metabolite level after compound treatment",-0.5204
same,sn-glycerol-3-phosphate,"[3]; metabolite sn-glycerol-3-phosphate, S2 Table Metabolomics",-0.07409
same,succinate/methylmalonic acid,"[3]; metabolite succinate/methylmalonic acid, S2 Table Metabolomics, change in metabolite level after compound treatment",-0.4318
same,uridine,"[3]; metabolite uridine, S2 Table Metabolomics, change in metabolite level after compound treatment",-0.8839
same,xanthosine,"[3]; metabolite xanthosine, S2 Table Metabolomics, change in metabolite level after compound treatment",-0.8196
